From US20190135793A1, “HETEROCYCLIC INHIBITORS OF KDM5 FOR THE TREATMENT OF DISEASE” (Board of Regents, The University of Texas System, priority 2017, published 2019)
Read-outs that look alike come from different tables or passages of the source.

Columns and labels:
KDM5B = biological target: T1, KDM5B (Homo sapiens, UniProt Q9UGL1); assay: biochemical
T1 construct: Full length of KDM5B and KDM4C protein were purchased from Active Motif; purchased Active Motif 31832
Experimental: (§1) KDM4C and KDM5B AlphaScreen Assay Material and Method
(§2) Compounds disclosed herein were (and can be) screened using the following assay.
Peptides used in all experiments were purchased from Anaspe. […] Final concentration of KDM5B and KDM4C used in the assay were 0.5 nM and 0.2 nM. Final concentration of peptides for 5B and 4C used in the assay were 3 nM.
(§3) 4 μL of KDM5B or KDM4C protein were added to 384-well OptiPlate by using multiflow, followed by 4 μl of either buffer or compound. Plates were sealed, spun down and incubated at RT for 15 min. 4 μl of biotinylated peptide was added to the plate, the plate was incubated at room temperature for 25 minutes (KDM5B) and 30 minutes (KDM4C) after sealed and spun down. Streptavidin donor beads and acceptor beads were diluted and mixed in the detection buffer with 7.5 mM EDTA, followed by adding 8 μl of acceptor and donor beads mix to the plate, before the plate was sealed and incubated at room temperature for 3 h or overnight at dark. The plate was read on Envision plate reader (PerkinElmer) using Alphascreen protocol. IC50s were calculated in GraphPad Prism 6.

KDM4C = biological target: T2, KDM4C (Homo sapiens, UniProt Q9H3R0); assay: KDM4C AlphaScreen assay; assay type: biochemical; conditions: AlphaScreen; full length KDM4C 0.2 nM; biotinylated H3K9Me3 peptide 3 nM; 30 minutes at room temperature
T2 construct: Full length of KDM5B and KDM4C protein were purchased from Active Motif; purchased Active Motif 31858
T2 sequence (Q9H3R0 1-1056): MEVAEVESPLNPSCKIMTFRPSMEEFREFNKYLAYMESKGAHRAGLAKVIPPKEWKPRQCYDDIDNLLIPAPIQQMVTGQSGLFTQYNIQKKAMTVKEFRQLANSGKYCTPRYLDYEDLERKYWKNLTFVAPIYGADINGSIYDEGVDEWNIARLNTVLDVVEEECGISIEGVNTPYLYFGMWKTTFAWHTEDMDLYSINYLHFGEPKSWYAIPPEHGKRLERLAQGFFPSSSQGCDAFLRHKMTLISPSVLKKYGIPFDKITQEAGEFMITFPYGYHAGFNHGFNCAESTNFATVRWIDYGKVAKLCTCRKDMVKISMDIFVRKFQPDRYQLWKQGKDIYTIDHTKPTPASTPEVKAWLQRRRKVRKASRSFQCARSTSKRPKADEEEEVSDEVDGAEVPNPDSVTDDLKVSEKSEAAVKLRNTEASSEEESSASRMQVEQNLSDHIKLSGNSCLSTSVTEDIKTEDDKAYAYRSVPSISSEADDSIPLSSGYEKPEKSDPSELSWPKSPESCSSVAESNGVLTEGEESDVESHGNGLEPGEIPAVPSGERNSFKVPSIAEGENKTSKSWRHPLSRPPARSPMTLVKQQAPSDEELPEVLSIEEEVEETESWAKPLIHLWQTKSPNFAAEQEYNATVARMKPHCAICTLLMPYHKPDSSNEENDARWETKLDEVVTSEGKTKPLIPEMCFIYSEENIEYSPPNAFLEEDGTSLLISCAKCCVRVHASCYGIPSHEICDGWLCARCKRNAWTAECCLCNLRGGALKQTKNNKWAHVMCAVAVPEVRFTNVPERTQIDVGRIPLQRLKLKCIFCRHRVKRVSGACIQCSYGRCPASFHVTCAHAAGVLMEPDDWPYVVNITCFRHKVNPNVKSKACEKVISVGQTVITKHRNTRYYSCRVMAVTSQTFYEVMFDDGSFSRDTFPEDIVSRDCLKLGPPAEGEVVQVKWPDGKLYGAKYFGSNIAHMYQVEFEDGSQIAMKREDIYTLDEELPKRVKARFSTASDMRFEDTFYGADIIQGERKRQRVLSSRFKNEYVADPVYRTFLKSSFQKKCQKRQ
Experimental: as §1, §2
Peptides used in all experiments were purchased from Anaspe. Full length of KDM5B and KDM4C protein were purchased from Active Motif: KDM5B (cat#31832) and KDM4C (Cat #31858). Final concentration of KDM5B and KDM4C used in the assay were 0.5 nM and 0.2 nM. Final concentration of peptides for 5B and 4C used in the assay were 3 nM.
as §3, with “AlphaScreen assays was conducted as following protocol: buffer used to make compound plate or DMSO is composed of 50 mM HEPES pH 7.4, 0.003% Tween-20; buffer used to dilute enzyme is composed of 50 mM HEPES pH 7.4, 0.003% Tween-20, 0.01% BSA, 500 μM TCEP; and buffer used to dilute the substrate is composed of 50 mM HEPES pH 7.4, 0.003% Tween-20, (NH4)2Fe(SO4)2 15 μM, alpha-ketoglutaric acid 4 μM and L-ascorbic acid 100 μM. 4 μL” for “4 μL”

[1] = AlphaScreen, full length KDM5B 0.5 nM, biotinylated H3K4Me3 peptide 3 nM, 25 minutes at room temperature, read-out: KDM5B (IC50)

T1 sequence (Q9UGL1 whole entry): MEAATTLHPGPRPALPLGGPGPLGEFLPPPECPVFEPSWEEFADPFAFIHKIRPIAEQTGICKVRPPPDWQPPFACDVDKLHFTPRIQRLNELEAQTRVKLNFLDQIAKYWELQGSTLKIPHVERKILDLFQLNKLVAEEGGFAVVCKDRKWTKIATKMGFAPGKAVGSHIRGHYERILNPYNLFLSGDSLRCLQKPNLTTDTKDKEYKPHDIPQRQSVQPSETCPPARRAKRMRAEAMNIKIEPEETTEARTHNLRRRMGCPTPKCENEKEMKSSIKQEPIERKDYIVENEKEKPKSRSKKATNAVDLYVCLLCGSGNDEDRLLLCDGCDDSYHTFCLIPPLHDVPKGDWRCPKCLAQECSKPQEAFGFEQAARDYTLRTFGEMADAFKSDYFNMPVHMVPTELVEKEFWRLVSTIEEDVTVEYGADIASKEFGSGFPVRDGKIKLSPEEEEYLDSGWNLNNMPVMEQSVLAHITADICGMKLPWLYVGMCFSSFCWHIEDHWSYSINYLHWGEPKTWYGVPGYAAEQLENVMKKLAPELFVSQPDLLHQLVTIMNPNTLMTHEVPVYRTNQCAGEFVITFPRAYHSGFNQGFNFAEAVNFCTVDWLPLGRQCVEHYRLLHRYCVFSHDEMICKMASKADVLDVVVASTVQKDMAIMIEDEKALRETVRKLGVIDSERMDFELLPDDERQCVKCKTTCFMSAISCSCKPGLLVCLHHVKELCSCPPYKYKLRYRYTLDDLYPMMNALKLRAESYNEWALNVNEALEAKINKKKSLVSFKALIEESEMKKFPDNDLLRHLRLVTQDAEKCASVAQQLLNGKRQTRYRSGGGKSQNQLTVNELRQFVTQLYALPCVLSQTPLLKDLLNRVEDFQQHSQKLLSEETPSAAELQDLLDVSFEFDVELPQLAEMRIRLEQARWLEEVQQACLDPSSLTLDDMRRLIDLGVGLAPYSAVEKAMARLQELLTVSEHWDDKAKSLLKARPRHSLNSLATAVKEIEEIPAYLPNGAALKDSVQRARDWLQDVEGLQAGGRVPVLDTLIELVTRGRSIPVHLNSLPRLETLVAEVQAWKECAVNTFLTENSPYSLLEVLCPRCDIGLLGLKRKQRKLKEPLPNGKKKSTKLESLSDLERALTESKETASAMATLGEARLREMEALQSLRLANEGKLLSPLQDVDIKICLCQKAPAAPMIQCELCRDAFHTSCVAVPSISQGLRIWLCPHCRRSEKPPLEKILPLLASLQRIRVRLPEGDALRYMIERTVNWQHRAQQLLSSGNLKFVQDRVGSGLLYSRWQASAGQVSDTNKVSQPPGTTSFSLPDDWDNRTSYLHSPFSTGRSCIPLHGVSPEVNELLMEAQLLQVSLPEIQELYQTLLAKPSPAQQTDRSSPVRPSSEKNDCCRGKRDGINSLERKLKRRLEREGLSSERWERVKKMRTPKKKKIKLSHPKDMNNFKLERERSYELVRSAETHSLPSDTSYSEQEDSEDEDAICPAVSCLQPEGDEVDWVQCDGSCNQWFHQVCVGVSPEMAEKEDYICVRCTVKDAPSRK

SMILES	IC50 (KDM5B)	IC50 (KDM4C)	IC50 (KDM5B; [1])
CC(C)c1c(O)nc(-n2ccnc2)nc1-c1cnn(CC(=O)NCCO)c1 [Example 104, 2-{4-[6-Hydroxy-2-(1H-imidazol-1-yl)-5-(propan-2-yl)pyrimidin-4-yl]-1H-pyrazol-1-yl}-N-(2-hydroxy-ethyl)acetamide]	15 nM	1380 nM	–
CC(C)c1c(O)nc(-n2ccnc2)nc1OCCC1CCN(C)CC1 [Example 11, 2-(1H-imidazol-1-yl)-6-[2-(1-methylpiperidin-4-yl)ethoxy]-5-(propan-2-yl)pyrimidin-4-ol]	7 nM	1210 nM	–
CC(C)c1c(O)nc(-n2ccnc2)nc1OCC1(N)CC1 [Example 128, 6-[(1-Aminocyclopropyl)-methoxy]-2-(1H-imidazol-1-yl)-5-(propan-2-yl)pyrimidin-4-ol]	–	1400 nM	19 nM
CC(C)c1c(O)nc(-c2cncs2)nc1-c1cnn(Cc2ccccc2)c1 [Example 20, 6-(1-Benzyl-1H-pyrazol-4-yl)-5-(propan-2-yl)-2-(1,3-thiazol-5-yl)pyrimidin-4-ol]	100 nM	11200 nM	–
CC(C)c1c(O)nc(-n2ccnc2)nc1C#Cc1cccnc1 [Example 10a, 2-(1H-imidazol-1-yl)-5-(propan-2-yl)-6-[2-(pyridin-3-yl)ethynyl]pyrimidin-4-ol]	11 nM	908 nM	–
CC(C)c1c(O)nc(-n2ccnc2)nc1OCC(=O)NCc1cccnc1 [Example 141, 2-{[6-Hydroxy-2-(1H-imidazol-1-yl)-5-(propan-2-yl)pyrimidin-4-yl]oxy}-N-(pyridin-3-ylmethyl)-acetamide]	–	4400 nM	33 nM
CCCCCCOc1nc(-n2ccnc2)nc(O)c1C(C)C [Example 140, 6-(Hexyloxy)-2-(1H-imidazol-1-yl)-5-(propan-2-yl)pyrimidin-4-ol]	–	50000 nM	341 nM
CC(C)c1c(O)nc(-n2ccnc2)nc1CCc1cccnc1 [Example 10b, 2-(1H-imidazol-1-yl)-5-(propan-2-yl)-6-[2-(pyridin-3-yl)ethyl]pyrimidin-4-ol]	11 nM	1490 nM	–
CC(C)c1c(O)nc(-n2ccnc2)nc1-c1cccc(CO)c1 [Example 77, 6-[3-(Hydroxymethyl)-phenyl]-2-(1H-imidazol-1-yl)-5-(propan-2-yl)pyrimidin-4-ol]	38 nM	2460 nM	–
CNC(=O)Cn1cc(-c2nc(-n3ccnc3)nc(O)c2C(C)C)cn1 [Example 113, 2-{4-[6-Hydroxy-2-(1H-imidazol-1-yl)-5-(propan-2-yl)pyrimidin-4-yl]-1H-pyrazol-1-yl)-N-methyl-acetamide]	24 nM	2090 nM	–
CC(C)c1c(O)nc(-n2ccnc2)nc1-c1cccc(S(C)(=O)=O)c1 [Example 72, 2-(1H-Imidazol-1-yl)-6-(3-methanesulfonylphenyl)-5-(propan-2-yl)pyrimidin-4-ol]	–	4470 nM	24 nM
CC(C)c1c(O)nc(-n2ccnc2)nc1-c1cnn(CC(=O)N2CCC(O)C2)c1 (stereo not shown) [Example 112, 2-{4-[6-Hydroxy-2-(1H-imidazol-1-yl)-5-(propan-2-yl)pyrimidin-4-yl]-1H-pyrazol-1-yl}-1-(3-hydroxy-pyrrolidin-1-yl)ethan-1-one]	21 nM	1600 nM	–
CC(C)c1c(O)nc(-n2ccnc2)nc1OCC1CN(C(=O)OCc2ccccc2)CCN1 (stereo not shown) [Example 127, Benzyl 3-({[6-hydroxy-2-(1H-imidazol-1-yl)-5-(propan-2-yl)pyrimidin-4-yl]-oxy}methyl)piperazine-1-carboxylate]	–	3080 nM	18 nM
CC(C)c1c(O)nc(-n2ccnc2)nc1OCCN1CCCC1=O [Example 132, 1-(2-{[6-Hydroxy-2-(1H-imidazol-1-yl)-5-(propan-2-yl)pyrimidin-4-yl]oxy}ethyl)-pyrrolidin-2-one]	30 nM	2410 nM	–
